Measurements: patent US9643952B2, “Pyridone compound” (KYOWA HAKKO KIRIN CO., LTD., priority 2012, dated 2017)

Tested on: dinitrofluorobenzene-induced auricle edema reaction
Assay: Suppressive action on dinitrofluorobenzene-induced auricle edema reaction in mouse
Format: in vivo
Conditions: for auricle edema suppression rate (%): BALE/c mice (female), test compound 1% (w/v %) in acetone applied to front and back of auricle (total 20 μL) 1 hr before and 3 hr after induction, auricle thickness 24 hr after induction; for suppressive action on auricle edema response (in words): BALE/c mice, 1% (w/v %) in acetone applied to auricle
Experimental: BALE/c mice (female, supplied by CHARLES RIVER LABORATORIES JAPAN, INC.) were purchased at the age of 5 weeks. After quarantine and acclimation, mice showing smooth body weight increase and free of abnormality in appearance were used and the test was started at the age of 7 weeks. The mice were housed in a breeding room at room temperature 19-25° C., humidity 30-70%, 12 hr lighting per day (7 a.m.-7 p.m.) with 3 mice in each plastic gauge, and bred on with free ingestion of a commercially available solid feed and water. Two days before the test, the abdomen of the BALE/c mice was shaved, and the mice were immunized by applying 100 μL of a solution {concentration 0.5% [weight (w)/volume (v) %]} of dinitrofluorobenzene (manufactured by Nacalai Tesque) in acetone (manufactured by Wako Pure Chemical Industries, Ltd.) to the shaved part. The reaction was induced by applying dinitrofluorobenzene-acetone solution [concentration 0.2% (w/v %)] to the front and the back of auricle (10 μL to each, total 20 μL) on day 5 after the immunization. A test compound dissolved in acetone at concentration of 1% (w/v %) was administered by applying same to the front and the back of auricle (10 μL to each, total 20 μL) 1 hr before and 3 hr after induction of the reaction. After application, the applied part was air-dried with a dryer. The group applying administered with the test compound was taken as a test compound administration group, and the group applying administered with acetone as a solvent instead of the test compound was taken as a solvent administration group. Also, the group free of immunization and reaction induction but applying administered with acetone instead of the test compound was taken as a normal group. The thickness of auricle was measured using a dial thickness gauge (G-1A manufactured by OZAKI MFG. CO., LTD.) immediately before and 24 hr after induction of the reaction, and the difference thereof was taken as auricle edema. The suppression rate (%) of auricle edema was calculated according to the following formula. [formula]

SMILES	auricle edema suppression rate (%)	suppressive action on auricle edema response (in words)
COCCn1cc(C(=O)N2CCC(c3ccc(F)cc3)CC2)c(Nc2ccc3scnc3c2)c(Cl)c1=O [Compound 206, 4-(benzo[d]thiazol-5-ylamino)-3-chloro-5-[4-(4-fluorophenyl)piperidine-1-carbonyl]-1-(2-methoxyethyl)pyridin-2(1H)-one]	30	showed a suppressive action on auricle edema response
Cc1c(Nc2ccc(F)cc2F)c(C(=O)N2CCC(c3ccc(F)cc3)CC2)cn(C)c1=O [Compound 125, 4-(2,4-difluorophenylamino)-5-[4-(4-fluorophenyl)piperidine-1-carbonyl]-1,3-dimethylpyridin-2(1H)-one]	47	showed a suppressive action on auricle edema response
COCCn1cc(C(=O)N2CCC(c3ccc(F)cc3)CC2)c(Nc2ccc(F)cc2F)c(Cl)c1=O [Compound 144, 3-chloro-4-(2,4-difluorophenylamino)-5-[4-(4-fluorophenyl)piperidine-1-carbonyl]-1-(2-methoxyethyl)pyridin-2(1H)-one]	32	
Cc1ccc(Cl)cc1Nc1c(C(=O)N2CCC(c3ccc(F)cc3)CC2)cn(OCCO)c(=O)c1Cl [Compound 204, 3-chloro-4-(5-chloro-2-methylphenylamino)-5-[4-(4-fluorophenyl)piperidine-1-carbonyl]-1-(2-hydroxyethoxyl)pyridin-2(1H)-one]	41	showed a suppressive action on auricle edema response
Cc1cc(C#N)ccc1Nc1c(C(=O)N2CCC(c3ccc(F)cc3)CC2)cn(C)c(=O)c1Cl [Compound 100, 4-{3-chloro-5-[4-(4-fluorophenyl)piperidine-1-carbonyl]-1-methyl-2-oxo-1,2-dihydropyridin-4-ylamino}-3-methylbenzonitrile]	53	showed a suppressive action on auricle edema response
Cn1cc(C(=O)N2CCC(c3ccc(F)cc3)CC2)c(Nc2ccc(S(C)(=O)=O)cc2F)c(Cl)c1=O [Compound 145, 3-chloro-4-[2-fluoro-4-(methylsulfonyl)phenylamino]-5-[4-(4-fluorophenyl)piperidine-1-carbonyl]-1-methylpyridin-2(1H)-one]		showed a suppressive action on auricle edema response
